For test [1], the system named is secreted IL-17 in peripheral blood mononuclear cells (PBMCs). Description: Human IL-17 inhibition assay. In kind it is cell-based. To be noted: PBMC, anti-CD3/anti-CD28, 72 h, read-out: IL17 IC50. The method, then:
Peripheral blood mononuclear cells (PBMCs) were isolated from healthy volunteers and subjected to T cell polarization assay. Two million PBMCs were placed on anti-CD3 (Biolegend, US) coated 96-well plates and 1 μg/mL of anti-CD28 (Biolegend, US) was added along with RORγt inhibitors or the vehicle control and incubated at 37° C. and 5% CO2 for 72 h. At the end of incubation time, the supernatant was collected and analyzed for secreted IL-17 using sandwich enzyme immunoassay (Mabtech AB, Sweden). The results were analyzed using Graphpad Prism and the half-maximal inhibitory concentrations (IC50) of the test compounds were derived (Table 4).

A further test deals with T1, full length human RORγt (Homo sapiens, UniProt P51449).
T1 construct: full length human RORγt together in COS-7 cells; expressed in transfected cells; host or cells: COS-7
T1 sequence (P51449 1-497 isoform P51449-2): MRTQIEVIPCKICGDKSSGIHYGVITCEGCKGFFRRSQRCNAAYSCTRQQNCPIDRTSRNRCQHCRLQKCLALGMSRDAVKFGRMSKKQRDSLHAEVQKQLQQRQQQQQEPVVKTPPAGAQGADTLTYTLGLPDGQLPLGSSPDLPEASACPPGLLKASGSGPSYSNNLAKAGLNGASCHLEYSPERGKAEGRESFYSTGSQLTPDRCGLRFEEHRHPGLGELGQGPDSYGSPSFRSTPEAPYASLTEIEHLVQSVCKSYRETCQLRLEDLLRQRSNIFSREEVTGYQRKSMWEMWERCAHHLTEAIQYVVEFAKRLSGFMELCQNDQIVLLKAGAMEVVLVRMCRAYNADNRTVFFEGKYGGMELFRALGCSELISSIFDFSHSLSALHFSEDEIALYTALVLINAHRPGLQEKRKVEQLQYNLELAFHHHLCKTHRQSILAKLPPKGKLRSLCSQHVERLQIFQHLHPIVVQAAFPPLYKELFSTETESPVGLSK
Put plainly: 5×RORE based luciferase assay. In kind it is cell-based. To be noted: COS-7 cells transfected with 5×RORE-Luc and hRORγt, 18-20 h treatment. The protocol:
Human RORγt (hRORγt) inhibitors were screened in RORE (RORγt Response Element) based Luciferase assay by transient transfection of 5×RORE (5 tandem repeats of RORγt Response Element) and full length human RORγt together in COS-7 cells. COS-7 cells were maintained as monolayer in complete DMEM (High Glucose) medium in presence of 2 mM Glutamin and 1× Sodium Pyruvate. Day before transfection, 15000 cells were seeded in 96 well cell culture plate in 100 μl antibiotic free medium and incubated at 37° C. in 5% CO2 containing humidified chamber O/N. Prior to transfection, cells were fed with fresh complete growth medium and incubated until the addition of transfection complex. Transfection complex for the required numbers of wells were prepared from pGL2-promoter-5×RORE-Luc plasmid, pcDNA3.1 (+)-hRORγt expression plasmid, pβ-GAL plasmid (transfection control), and Lipofectamine 3000 (Invitrogen). 50 μl of transfection complex were added in 100 μl of complete medium to respective wells, mixed gently and plate was incubated for 5-6 h at 37° C. in 5% CO2 containing humidified chamber. After 5 h of transfection, content of the wells were aspirated and cells were treated with increasing concentration of RORγt inverse agonist in medium devoid of serum with a final DMSO concentration of 0.2% for 18-20 h at 37° C. in 5% CO2 containing humidified chamber. Next day, cells were lysed and the lysates were assayed for luciferase and β-GAL activity using Promega's luciferase assay system and an in-house made β-GAL assay buffer respectively. Luciferase signals were normalized with β-GAL and % activity was determined with respect to that of 10 nM control ligand.
IC50 of selected compounds were then determined by nonlinear regression analysis of % activity, plotted against compound concentration (Table 4).

The record followed here is patent US20190152962A1, “CYCLOPROPYL DERIVATIVES AS ROR-GAMMA MODULATORS” (CADILA HEALTHCARE LIMITED, priority 2016, published 2019).

As usually defined, the IC50 is the point on the concentration scale where inhibition reaches its midpoint. As to `CCS(=O)(=O)c1ccc(CC(=O)Nc2cc(Cl)c(C3(c4noc(-c5ccc(F)cc5)n4)CC3)c(Cl)c2)cc1` [Example 1, N-(3,5-dichloro-4-(1-(5-(4-fluorophenyl)-1,2,4-oxadiazol-3-yl)cyclopropyl)phenyl)-2-(4-(ethylsulfonyl)phenyl)acetamide], the IC50 in test [1] was determined as 6.6 nM.
Take `CCS(=O)(=O)c1ccc(CC(=O)Nc2cc(Cl)c(C3(c4noc(-c5ccccc5)n4)CC3)c(Cl)c2)cc1` [Example 2, N-(3,5-dichloro-4-(1-(5-phenyl-1,2,4-oxadiazol-3-yl)cyclopropyl)phenyl)-2-(4-(ethylsulfonyl)phenyl)acetamide]: the half-maximal inhibitory concentration (IC50) amounted to 25 nM in test [1] and 7 nM on full length human RORγt.
With `CCS(=O)(=O)c1ccc(CC(=O)Nc2cc(Cl)c(C3(c4noc(-c5ccc(C(F)(F)F)cc5)n4)CC3)c(Cl)c2)cc1` [Example 3, N-(3,5-dichloro-4-(1-(5-(4-(trifluoromethyl)phenyl)-1,2,4-oxadiazol-3-yl)cyclopropyl)phenyl)-2-(4-(ethylsulfonyl)phenyl)acetamide], the concentration for half-maximal inhibition (IC50) in test [1] turned out to be 38.3 nM; on full length human RORγt, 8.5 nM.
On to `CCS(=O)(=O)c1ccc(CC(=O)Nc2cc(Cl)c(C3(c4noc(-c5ccc(C)cc5)n4)CC3)c(Cl)c2)cc1` [Example 4, N-(3,5-dichloro-4-(1-(5-(p-tolyl)-1,2,4-oxadiazol-3-yl)cyclopropyl)phenyl)-2-(4-(ethylsulfonyl)phenyl)acetamide], for which the IC50 in test [1] stood at 15 nM; against full length human RORγt, 1.46 nM.
For `CCS(=O)(=O)c1ccc(CC(=O)Nc2cc(Cl)c(C3(c4noc(-c5ccc(F)c(F)c5)n4)CC3)c(Cl)c2)cc1` [Example 5, N-(3,5-dichloro-4-(1-(5-(3,4-difluorophenyl)-1,2,4-oxadiazol-3-yl)cyclopropyl)phenyl)-2-(4-(ethylsulfonyl)phenyl)acetamide] the same measures were 17 nM and 5.6 nM.
For `CCS(=O)(=O)c1ccc(CC(=O)Nc2cc(Cl)c(C3(c4noc(-c5cccc(F)c5)n4)CC3)c(Cl)c2)cc1` [Example 6, N-(3,5-dichloro-4-(1-(5-(3-fluorophenyl)-1,2,4-oxadiazol-3-yl)cyclopropyl)phenyl)-2-(4-(ethylsulfonyl)phenyl)acetamide], the IC50 in test [1] came to 35 nM; against full length human RORγt, 3.4 nM.
Take `CCS(=O)(=O)c1ccc(CC(=O)Nc2cc(Cl)c(C3(c4noc(-c5ccc(F)cc5F)n4)CC3)c(Cl)c2)cc1` [Example 7, N-(3,5-dichloro-4-(1-(5-(2,4-difluorophenyl)-1,2,4-oxadiazol-3-yl)cyclopropyl)phenyl)-2-(4-(ethylsulfonyl)phenyl)acetamide]: the concentration for half-maximal inhibition (IC50) in test [1] amounted to 10.4 nM; on full length human RORγt it was 8.7 nM.
As to `CCS(=O)(=O)c1ccc(CC(=O)Nc2cc(Cl)c(C3(c4noc(-c5c(F)cc(F)cc5F)n4)CC3)c(Cl)c2)cc1` [Example 8, N-(3,5-dichloro-4-(1-(5-(2,4,6-trifluorophenyl)-1,2,4-oxadiazol-3-yl)cyclopropyl)phenyl)-2-(4-(ethylsulfonyl)phenyl)acetamide], the IC50 in test [1] was determined as 2.7 nM; at full length human RORγt, 11 nM.
With `CCS(=O)(=O)c1ccc(CC(=O)Nc2cc(Cl)c(C3(c4noc(-c5ccc(F)cc5Cl)n4)CC3)c(Cl)c2)cc1` [Example 9, N-(3,5-dichloro-4-(1-(5-(2-chloro-4-fluorophenyl)-1,2,4-oxadiazol-3-yl)cyclopropyl)phenyl)-2-(4-(ethylsulfonyl)phenyl)acetamide], the IC50 in test [1] was determined as 9.2 nM; against full length human RORγt, 8.9 nM.
For `CCS(=O)(=O)c1ccc(CC(=O)Nc2cc(Cl)c(C3(c4noc(-c5ccc(F)c(Cl)c5)n4)CC3)c(Cl)c2)cc1` [Example 10, N-(3,5-dichloro-4-(1-(5-(3-chloro-4-fluorophenyl)-1,2,4-oxadiazol-3-yl)cyclopropyl)phenyl)-2-(4-(ethylsulfonyl)phenyl)acetamide] the same measures were 9.4 nM and 6.8 nM.
Regarding `CCS(=O)(=O)c1ccc(CC(=O)Nc2cc(Cl)c(C3(c4noc(-c5ccc(Cl)c(Cl)c5)n4)CC3)c(Cl)c2)cc1` [Example 11, N-(3,5-dichloro-4-(1-(5-(3,4-dichlorophenyl)-1,2,4-oxadiazol-3-yl)cyclopropyl)phenyl)-2-(4-(ethylsulfonyl)phenyl)acetamide], the IC50 was 14.7 nM in test [1] and 15.9 nM against full length human RORγt.
Take `CCS(=O)(=O)c1ccc(CC(=O)Nc2cc(Cl)c(C3(c4noc(-c5ccc(Cl)cc5Cl)n4)CC3)c(Cl)c2)cc1` [Example 12, N-(3,5-dichloro-4-(1-(5-(2,4-dichlorophenyl)-1,2,4-oxadiazol-3-yl)cyclopropyl)phenyl)-2-(4-(ethylsulfonyl)phenyl)acetamide]: the IC50 in test [1] is 10.6 nM; on full length human RORγt, 5.9 nM.
`CCS(=O)(=O)c1ccc(CC(=O)Nc2cc(Cl)c(C3(c4noc(-c5ccc(Cl)cc5)n4)CC3)c(Cl)c2)cc1` [Example 13, N-(3,5-dichloro-4-(1-(5-(4-chlorophenyl)-1,2,4-oxadiazol-3-yl)cyclopropyl)phenyl)-2-(4-(ethylsulfonyl)phenyl)acetamide]: the IC50 in test [1] came to 27.2 nM; against full length human RORγt it was 8.9 nM.
For `CCS(=O)(=O)c1ccc(CC(=O)Nc2cc(Cl)c(C3(c4noc(-c5ccc(C#N)cc5)n4)CC3)c(Cl)c2)cc1` [Example 14, N-(3,5-dichloro-4-(1-(5-(4-cyanophenyl)-1,2,4-oxadiazol-3-yl)cyclopropyl)phenyl)-2-(4-(ethylsulfonyl)phenyl)acetamide], the IC50 is 9.5 nM in test [1] and 1.3 nM at full length human RORγt.
For `CCS(=O)(=O)c1ccc(CC(=O)Nc2cc(Cl)c(C3(c4noc(-c5ccc(OC)cc5F)n4)CC3)c(Cl)c2)cc1` [Example 15, N-(3,5-dichloro-4-(1-(5-(2-fluoro-4-methoxyphenyl)-1,2,4-oxadiazol-3-yl)cyclopropyl)phenyl)-2-(4-(ethylsulfonyl)phenyl)acetamide], the IC50 in test [1] worked out at 27 nM; on full length human RORγt, 5.7 nM.
Turning to `CCS(=O)(=O)c1ccc(CC(=O)Nc2cc(Cl)c(C3(c4noc(-c5cccs5)n4)CC3)c(Cl)c2)cc1` [Example 16, N-(3,5-dichloro-4-(1-(5-(thiophen-2-yl)-1,2,4-oxadiazol-3-yl)cyclopropyl)phenyl)-2-(4-(ethylsulfonyl)phenyl)acetamide], the IC50 in test [1] was 42 nM; at full length human RORγt it was 0.9 nM.
`CCS(=O)(=O)c1ccc(CC(=O)Nc2cc(Cl)c(C3(c4noc(-c5ccc(Cl)s5)n4)CC3)c(Cl)c2)cc1` [Example 17, N-(3,5-dichloro-4-(1-(5-(5-chlorothiophen-2-yl)-1,2,4-oxadiazol-3-yl)cyclopropyl)phenyl)-2-(4-(ethylsulfonyl)phenyl)acetamide]: the values for the IC50 (in test [1]; at full length human RORγt) were 6 nM and 1.9 nM, respectively.
As to `CCS(=O)(=O)c1ccc(CC(=O)Nc2cc(Cl)c(C3(c4noc(-c5ccc(C)s5)n4)CC3)c(Cl)c2)cc1` [Example 18, N-(3,5-dichloro-4-(1-(5-(5-methylthiophen-2-yl)-1,2,4-oxadiazol-3-yl)cyclopropyl)phenyl)-2-(4-(ethylsulfonyl)phenyl)acetamide], the IC50 in test [1] was 23.7 nM; against full length human RORγt, 3.9 nM.
The matching figures for `CCS(=O)(=O)c1ccc(CC(=O)Nc2cc(Cl)c(C3(c4noc(-c5cccnc5)n4)CC3)c(Cl)c2)cc1` [Example 19, N-(3,5-dichloro-4-(1-(5-(pyridin-3-yl)-1,2,4-oxadiazol-3-yl)cyclopropyl)phenyl)-2-(4-(ethylsulfonyl)phenyl)acetamide]: 27 nM and 1.58 nM.
